From paper PMC12801355, “Peptide Amphiphiles Hitchhike on Endogenous Biomolecules for Enhanced Cancer Imaging and Therapy” (Advanced Materials (Deerfield Beach, Fla.), 2025)
Where a SMILES comes first, the peptide text is derived from it. The star is where a group is joined. Palmitoyl = CCCCCCCCCCCCCCCC(=O)*

Experiments:
[1] = tested on: xenograft, syngeneic, transgenic and PDX tumor models; assay: Tumor accumulation in a broad range of tumor models; format: in vivo, mouse; settings: 2 days after 50 nmol IV
Description: (§1) For tumor accumulation studies in subcutaneous (HCT‐116, A375, TRAMP‐C2, MC38, LLC1, RG2, PDX cell lines, wild type or SR‐B1 ‐/‐ TRAMP‐C2, and wild type or LDL‐R ‐/‐ HeLa), intradermal (A375), or fat pad (4T1 and MCF‐7) tumors, cells were implanted as described above. When the tumors reached a size around ≈0.3–1 cm, mice were injected intravenously with 100 µL of ICG conjugated PAs (in PBS, 0.5 mM) or free ICG (in PBS, 0.5 mM). After probe injections, mice were imaged using the IVIS Spectrum (PerkinElmer) with excitation and emission wavelengths of 745 and 820 nm, respectively, at the specified time points. Living Image (PerkinElmer) software was used for all analyses. For MMTV mice experiments, mice were injected intravenously weekly with SA‐E (100 µL PBS, 0.5 mM) between 71 and 85 days of age and imaged 2 days later in the IVIS. […] SA‐E was injected intravenously (100 µL PBS, 0.5 mM), 2 days later the intestinal tissue was harvested, washed, and analyzed in the IVIS for ICG.

TRAMP‐C2 tumors = assay: Tumor accumulation in wild type or SR‐B1‐/‐ tumors; format: in vivo, mouse; settings: 50 nmol IV, 2 days
Description: as §1

[2] = Stability of PA nanostructures in plasma (fluorescence recovery); format: in vitro ADME, human
Description: ICG or Cy5 conjugated PAs were dissolved in PBS (10 mM, pH 7.4) at a concentration of 1 or 100 µM, and 90 µL aliquots of these solutions were added to a 96 well plate (4 wells for each PA). Then, 10 µL of pooled human plasma was added to each well, and fluorescence spectra of ICG or Cy5 were recorded using a microplate reader (TECAN Spark 20 M) at different time points.

4T1 tumor = assay: Biodistribution in tumor‐bearing mice; format: in vivo, mouse; settings: 4T1, 2 days after 50 nmol IV, tissue homogenates, plate reader, mean ± SEM
Description: For biodistribution studies in 4T1 and MC38 tumor models in wild type, ApoA1 ‐/‐, or LDL‐R ‐/‐ mice, 100 µL of ICG conjugated PAs or free ICG (0.5 mM) were intravenously injected. 2 days after injection, the mice were euthanized, and tumors and organs were excised and analyzed in the IVIS (PerkinElmer) for ICG.
To determine the percentage of the injected dose of SA‐E in tissues, 4T1 tumor, spleen, kidney, lung, and colon tissues were harvested from 5 mice 2 days after ICG conjugated SA‐E (IV, 100 µL, 0.5 mM). Organ weights were measured for normalization. Tissues were homogenized in gentleMACS M Tube containing 1 mL of PBS and equipped with a 600 µm mesh strainer using a gentleMACS dissociator as described above. The resulting tissue homogenates were transferred into a 96‐well plate for fluorescence measurement using a microplate reader (TECAN Spark 20 M). Additionally, organ tissues from healthy mice without probe injection were harvested and homogenized to prepare calibration curves. ICG conjugated SA‐E was spiked into tissue samples at different concentrations, and fluorescence intensities were measured using a microplate reader (TECAN Spark 20 M). For biodistribution studies with 10 mol% ICG containing micelles, ICG conjugated PAs were mixed with maleimide blocked PAs to achieve a final concentration of 0.25 mM ICG conjugated PAs and 2.5 mM total peptides. […]

4T1 cells = assay: Uptake of SA‐E in the presence of inhibitors; format: cell-based, mouse; settings: inhibitor 10 µM, 20 min pre‐incubation, Cy5 SA‐E 20 µM, FBS free media
Description: To explore the effect of serum proteins and different inhibitors on the cellular uptake of SA‐E, 4T1 cells were grown to near confluency in 96 well plates, as described above. For cellular uptake mechanism studies, the growth media (RPMI containing 10% FBS) was exchanged for 100 µL of FBS free media, then returned to the incubator. Inhibitors (brefeldin A, bromsulphalein, chlorpromazine hydrochloride, cis‐ACBD, filipin, heparin, methyl‐β‐cyclodextrin, or wortmannin) were made in FBS free media at a concentration of 1 mM. Then, 1 µL of media containing inhibitors was added to wells, so that the final drug concentration in each well was 10 µM. The plate was returned to the incubator for 20 min. After incubation, Cy5 conjugated SA‐E was added to all wells such that the final concentration was 20 µM per well. The plate was returned to the incubator for 30 min. Wells were aspirated and washed with PBS as above. 100 µL of FBS free media was added, and the plate was returned to the incubator for 1 h. Finally, Hoechst staining and fluorescence imaging were performed using a Leica Thunder DMi8 fluorescent microscope, as described above.

[3] = PA fluorescence in liver homogenates; format: in vitro ADME; settings: ICG conjugated, 0.1 to 10 µM spiked into mouse liver homogenate, IVIS
Description: Liver samples (6.2 g total weight) collected from healthy BALB/cJ mice were placed in a gentleMACS M Tube containing 2 mL of PBS. The M Tube was fitted with a 600 µm mesh strainer, and homogenization was performed using a gentleMACS Dissociator by running a one‐minute program at 1260 rotations per round (rpr) for five cycles. ICG conjugated SA‐E and SA‐K were then spiked into the liver homogenates in a 96‐well plate at final concentrations of 0, 0.1, 0.5, 2.0, 5.0, and 10 µM. Fluorescence signals from the homogenates were measured using an IVIS (PerkinElmer).

Toxicity in mice = format: in vivo, mouse; settings: wild type mice, 200 nmol IV, 5 mice
Description: Wild type mice were injected intravenously with ICG conjugated SA‐E at 4 times the dose used previously for imaging (100 µL, 2 mM). 1 day later, blood was removed via cardiac puncture, placed into an EDTA tube, and then centrifuged at 1500 g for 10 min, then 2500 g for 10 min to obtain plasma. The plasma was analyzed for Aspartate Aminotransferase activity (AST) (Abcam, AB105135) and creatinine (Crystal Chem, 80350) following the manufacturer's protocol. For complete blood counts, whole blood (10 µL) was mixed with 2 mM EDTA (10 µL) and analyzed using the HemaVet 950S (Drew Scientific).

HeLa tumors = assay: Tumor accumulation in wild type or LDL‐R‐/‐ tumors; format: in vivo, mouse; settings: 50 nmol IV, 2 days
Description: as §1

CCCCCCCCCCCCCCCC(=O)NCC(=O)NCC(=O)NCC(=O)N[C@@H](Cc1c[nH]cn1)C(=O)N[C@@H](C)C(=O)N[C@@H](C)C(=O)N[C@@H](CC(N)=O)C(=O)NCC(=O)N[C@@H](CCC(=O)O)C(=O)N[C@@H](CCC(=O)O)C(=O)N[C@@H](CS)C(=O)N[C@@H](CCC(=O)O)C(=O)O [SA‐E] (Palmitoyl-GGGHAANGEECE-OH)
tumor accumulation across models [1]: highly specific tumor accumulation in all 13 tumor models
tumor accumulation, SR‐B1 knockout versus wild type tumors (TRAMP‐C2 tumors): not needed for tumor accumulation
increase in Cy5 fluorescence in plasma relative to SA‐K ([2]; Cy5 conjugated PAs 100 µM, 10% human plasma, 1 h): ≈ 10 fold
increase in ICG fluorescence in plasma relative to SA‐K (micelle disassembly) ([2]; ICG conjugated PAs 1 or 100 µM in PBS pH 7.4 with 10% pooled human plasma, over 2 h, plate reader, larger and more rapid than SA‐K): approximately three‐fold
concentration in the tumor (4T1 tumor; 5 mice): 1.9% ± 0.4 %ID / g tissue
concentration in liver (4T1 tumor): 0.8% ± 0.1 %ID / g tissue
cellular uptake with Filipin (4T1 cells): decreased SA‐E uptake to a lesser extent
cellular uptake with Methyl‐β‐cyclodextrin (4T1 cells): Significant decreases
cellular uptake with Wortmannin (4T1 cells): Significant decreases
cellular uptake with bromosulfalein (BSP) (4T1 cells): no change
cellular uptake with cis‐ACBD (4T1 cells): no change
fluorescence in liver homogenates, SA‐E versus SA‐K (disassembly) [3]: almost identical fluorescence intensity
Aspartate transferase (AST) versus control (Toxicity in mice; 1 day): no difference
Creatinine versus control (Toxicity in mice; 1 day): no difference
complete blood counts (CBC) versus control (Toxicity in mice; blood 1 day after injection): no difference
tumor accumulation, LDL‐R knockout versus wild type tumors (HeLa tumors): not needed for tumor accumulation
